According to ChEMBL document CHEMBL3734692, “Design and synthesis of 2-oxindole based multi-targeted inhibitors of PDK1/Akt signaling pathway for the treatment of glioblastoma multiforme” (Eur J Med Chem, 2015):
Activity calls are given as the source filed them. The rule behind the calls is not given here.

How the values were obtained:
ASPC1 = assay: Cytotoxicity against human AsPC1 cells assessed as cell viability 10 uM after 72 hrs by cell counting analysis relative to control; assay type: functional
U-118-MG = assay: Antiproliferative activity against human U118MG cells assessed as inhibition of cell growth at 100 uM after 72 hrs by WST1 assay; assay type: functional, cell-based
[1] = biological target: T1, 3-phosphoinositide-dependent protein kinase 1 (Homo sapiens, UniProt O15530); assay: Inhibition of PDK1 (unknown origin) incubated for 1 hr by Z'Lyte assay
T1 sequence (O15530 whole entry): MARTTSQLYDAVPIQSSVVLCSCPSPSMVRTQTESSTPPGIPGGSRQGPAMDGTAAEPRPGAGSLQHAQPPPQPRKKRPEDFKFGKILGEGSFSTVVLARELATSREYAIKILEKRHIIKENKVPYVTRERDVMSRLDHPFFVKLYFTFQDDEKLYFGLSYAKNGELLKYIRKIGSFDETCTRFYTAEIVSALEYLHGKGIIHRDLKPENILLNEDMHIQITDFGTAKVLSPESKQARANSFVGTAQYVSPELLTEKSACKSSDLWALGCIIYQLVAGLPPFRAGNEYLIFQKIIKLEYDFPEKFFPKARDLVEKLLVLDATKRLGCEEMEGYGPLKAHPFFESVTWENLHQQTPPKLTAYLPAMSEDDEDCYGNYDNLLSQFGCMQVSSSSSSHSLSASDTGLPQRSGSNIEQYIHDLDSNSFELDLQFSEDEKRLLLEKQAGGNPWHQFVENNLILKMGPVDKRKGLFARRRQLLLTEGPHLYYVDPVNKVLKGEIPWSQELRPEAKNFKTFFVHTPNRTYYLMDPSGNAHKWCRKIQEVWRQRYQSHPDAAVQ

[2] = biological target: RAC-alpha serine/threonine-protein kinase (Homo sapiens) (UniProt P31749); assay: Inhibition of recombinant Akt1 (unknown origin) incubated for 1 hr by Z'Lyte assay
Sequence of RAC-alpha serine/threonine-protein kinase (Homo sapiens) (P31749 whole entry): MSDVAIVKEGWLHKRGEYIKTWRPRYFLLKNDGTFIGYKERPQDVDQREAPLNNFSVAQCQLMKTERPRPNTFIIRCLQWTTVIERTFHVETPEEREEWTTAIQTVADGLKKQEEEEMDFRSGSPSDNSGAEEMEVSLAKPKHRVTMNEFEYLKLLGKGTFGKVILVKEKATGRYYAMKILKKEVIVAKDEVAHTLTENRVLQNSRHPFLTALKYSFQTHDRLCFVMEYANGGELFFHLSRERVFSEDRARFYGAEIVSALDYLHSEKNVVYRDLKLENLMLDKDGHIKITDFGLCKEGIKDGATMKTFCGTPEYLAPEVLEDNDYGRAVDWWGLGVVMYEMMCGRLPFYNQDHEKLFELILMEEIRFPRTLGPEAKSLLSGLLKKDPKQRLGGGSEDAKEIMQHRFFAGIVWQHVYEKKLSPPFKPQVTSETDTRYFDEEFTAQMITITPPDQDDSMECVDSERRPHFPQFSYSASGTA

Row | SMILES | Activity (ASPC1) | other results
1 | CSc1ccc(NC(=O)Nc2ccc3c(c2)/C(=C/c2cccs2)C(=O)N3)cc1 | 77.29% | 
2 | COc1cc2c(cc1OC)CN(CC(=O)Nc1ccc3c(c1)/C(=C/c1cccs1)C(=O)N3)CC2 | 82.04% | 
3 | COc1ccc(CNCC(=O)Nc2ccc3c(c2)/C(=C/c2cccs2)C(=O)N3)cc1OC | 86.75% | 
4 | CS(=O)(=O)c1ccc(NC(=O)Nc2ccc3c(c2)/C(=C/c2cnc[nH]2)C(=O)N3)cc1 | 82.21% | 
5 | COc1ccc(CNS(=O)(=O)c2ccc3c(c2)/C(=C\c2nccn2C)C(=O)N3)cc1OC | 84.5% | 
6 | COc1ccc(CNS(=O)(=O)c2ccc3c(c2)/C(=C/c2cccs2)C(=O)N3)cc1OC | 84.18% | 
7 | Cn1nnc2c(C(N)=O)ncn2c1=O |  | growth inhibition (GI) (U-118-MG): inactive
8 | CS(=O)(=O)c1ccc(NC(=O)Nc2ccc3c(c2)/C(=C/c2cccs2)C(=O)N3)cc1 | 93.88% | 
9 | CSc1ccc(NC(=O)Nc2ccc3c(c2)/C(=C\c2nccn2C)C(=O)N3)cc1 | 95.13% | 
10 | COc1cc2c(cc1OC)CN(CC(=O)Nc1ccc3c(c1)/C(=C\c1nccn1C)C(=O)N3)CC2 | 82.34% | 
11 | CS(=O)(=O)Nc1ccc2c(c1)/C(=C/c1cccs1)C(=O)N2 | 68.06% | IC50 [1]: 6.81 µM; inhibition [2]: inactive
12 | Cn1ccnc1/C=C1/C(=O)Nc2ccc(NS(C)(=O)=O)cc21 | 96.23% | 
13 | Cn1ccnc1/C=C1/C(=O)Nc2ccc(NC(=O)Nc3ccc(S(C)(=O)=O)cc3)cc21 | 90.57% | 
14 | CSc1ccc(NC(=O)Nc2ccc3c(c2)/C(=C/c2cnc[nH]2)C(=O)N3)cc1 | 82.94% | 
15 | CS(=O)(=O)Nc1ccc2c(c1)/C(=C/c1cnc[nH]1)C(=O)N2 | 73.83% | IC50 [1]: 0.31 µM; inhibition [2]: inactive
